Values belong to the compound of their own block, whether it stands above or below them. Calls of active or inactive are those of the source.
Columns and labels:
[1] = biological target: T1, E3 ubiquitin-protein ligase XIAP (Homo sapiens, UniProt P98170); experiment: small molecules displacing peptide from XIAP – biochemical, IAP family, fluorescence polarization (AID 1018); assay type: functional
[2] = biological target: T1, E3 ubiquitin-protein ligase XIAP; experiment: Counter Screen using XIAP-Bir3 for Chemical Antagonists of Bir1/2 domains of IAP-family anti-apoptotic proteins. [Related pubchem assays (depositor defined):AID1018, AID1449, AID1514, AID1638, AID1749, AID1750, AID488957, AID488963]
Cytochrome P450 2C9 = Cytochrome P450 2C9 (Homo sapiens, UniProt P11712)
Cytochrome P450 2C9, sequence (P11712 whole entry): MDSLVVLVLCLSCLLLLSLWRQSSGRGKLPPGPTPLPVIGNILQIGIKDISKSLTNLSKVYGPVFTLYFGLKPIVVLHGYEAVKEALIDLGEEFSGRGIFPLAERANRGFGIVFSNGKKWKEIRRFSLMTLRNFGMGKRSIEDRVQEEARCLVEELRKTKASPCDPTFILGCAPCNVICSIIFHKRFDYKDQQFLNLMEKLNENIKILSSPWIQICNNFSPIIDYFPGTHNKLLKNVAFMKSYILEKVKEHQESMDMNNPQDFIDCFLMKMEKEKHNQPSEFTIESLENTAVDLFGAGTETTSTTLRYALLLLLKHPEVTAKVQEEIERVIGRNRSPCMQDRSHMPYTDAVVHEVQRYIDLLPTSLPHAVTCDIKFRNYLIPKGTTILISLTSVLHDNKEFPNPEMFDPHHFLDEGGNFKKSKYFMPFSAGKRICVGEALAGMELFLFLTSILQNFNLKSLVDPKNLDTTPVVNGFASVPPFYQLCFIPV

Kallikrein-7 = Kallikrein-7 (Homo sapiens, UniProt P49862); experiment: Fluorescence Intensity-based biochemical primary high throughput dose response assay to identify activators of kallikrein-7 (K7) zymogen.
Kallikrein-7, sequence (P49862 whole entry): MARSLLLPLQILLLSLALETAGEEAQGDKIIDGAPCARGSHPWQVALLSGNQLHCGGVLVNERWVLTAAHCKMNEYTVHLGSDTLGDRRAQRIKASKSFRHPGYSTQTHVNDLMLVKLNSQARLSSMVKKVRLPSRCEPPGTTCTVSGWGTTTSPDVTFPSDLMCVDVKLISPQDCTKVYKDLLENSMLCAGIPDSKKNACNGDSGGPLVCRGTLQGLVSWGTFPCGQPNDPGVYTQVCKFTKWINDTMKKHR

Cytochrome P450 3A4 = Cytochrome P450 3A4 (Homo sapiens, UniProt P08684);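 note: CYP3A4 tested as one member of a cytochrome P450 panel screen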
Cytochrome P450 3A4, sequence (P08684 whole entry): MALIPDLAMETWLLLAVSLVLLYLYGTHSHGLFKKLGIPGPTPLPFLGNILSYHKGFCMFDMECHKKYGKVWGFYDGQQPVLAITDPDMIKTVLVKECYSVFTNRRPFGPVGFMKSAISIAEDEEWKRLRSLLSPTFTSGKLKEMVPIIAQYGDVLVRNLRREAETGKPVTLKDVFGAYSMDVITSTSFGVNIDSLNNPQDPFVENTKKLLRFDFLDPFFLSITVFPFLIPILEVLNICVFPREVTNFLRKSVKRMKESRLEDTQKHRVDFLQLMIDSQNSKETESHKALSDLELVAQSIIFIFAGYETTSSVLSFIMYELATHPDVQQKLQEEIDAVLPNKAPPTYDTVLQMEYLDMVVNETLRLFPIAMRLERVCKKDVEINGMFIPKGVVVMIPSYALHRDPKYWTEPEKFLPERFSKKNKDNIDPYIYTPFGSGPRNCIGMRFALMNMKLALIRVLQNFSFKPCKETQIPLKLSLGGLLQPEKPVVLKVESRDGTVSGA

[3] = biological target: T2, Histone-lysine N-methyltransferase NSD2 (Homo sapiens, UniProt O96028); assay type: biochemical
T2 sequence (O96028 whole entry): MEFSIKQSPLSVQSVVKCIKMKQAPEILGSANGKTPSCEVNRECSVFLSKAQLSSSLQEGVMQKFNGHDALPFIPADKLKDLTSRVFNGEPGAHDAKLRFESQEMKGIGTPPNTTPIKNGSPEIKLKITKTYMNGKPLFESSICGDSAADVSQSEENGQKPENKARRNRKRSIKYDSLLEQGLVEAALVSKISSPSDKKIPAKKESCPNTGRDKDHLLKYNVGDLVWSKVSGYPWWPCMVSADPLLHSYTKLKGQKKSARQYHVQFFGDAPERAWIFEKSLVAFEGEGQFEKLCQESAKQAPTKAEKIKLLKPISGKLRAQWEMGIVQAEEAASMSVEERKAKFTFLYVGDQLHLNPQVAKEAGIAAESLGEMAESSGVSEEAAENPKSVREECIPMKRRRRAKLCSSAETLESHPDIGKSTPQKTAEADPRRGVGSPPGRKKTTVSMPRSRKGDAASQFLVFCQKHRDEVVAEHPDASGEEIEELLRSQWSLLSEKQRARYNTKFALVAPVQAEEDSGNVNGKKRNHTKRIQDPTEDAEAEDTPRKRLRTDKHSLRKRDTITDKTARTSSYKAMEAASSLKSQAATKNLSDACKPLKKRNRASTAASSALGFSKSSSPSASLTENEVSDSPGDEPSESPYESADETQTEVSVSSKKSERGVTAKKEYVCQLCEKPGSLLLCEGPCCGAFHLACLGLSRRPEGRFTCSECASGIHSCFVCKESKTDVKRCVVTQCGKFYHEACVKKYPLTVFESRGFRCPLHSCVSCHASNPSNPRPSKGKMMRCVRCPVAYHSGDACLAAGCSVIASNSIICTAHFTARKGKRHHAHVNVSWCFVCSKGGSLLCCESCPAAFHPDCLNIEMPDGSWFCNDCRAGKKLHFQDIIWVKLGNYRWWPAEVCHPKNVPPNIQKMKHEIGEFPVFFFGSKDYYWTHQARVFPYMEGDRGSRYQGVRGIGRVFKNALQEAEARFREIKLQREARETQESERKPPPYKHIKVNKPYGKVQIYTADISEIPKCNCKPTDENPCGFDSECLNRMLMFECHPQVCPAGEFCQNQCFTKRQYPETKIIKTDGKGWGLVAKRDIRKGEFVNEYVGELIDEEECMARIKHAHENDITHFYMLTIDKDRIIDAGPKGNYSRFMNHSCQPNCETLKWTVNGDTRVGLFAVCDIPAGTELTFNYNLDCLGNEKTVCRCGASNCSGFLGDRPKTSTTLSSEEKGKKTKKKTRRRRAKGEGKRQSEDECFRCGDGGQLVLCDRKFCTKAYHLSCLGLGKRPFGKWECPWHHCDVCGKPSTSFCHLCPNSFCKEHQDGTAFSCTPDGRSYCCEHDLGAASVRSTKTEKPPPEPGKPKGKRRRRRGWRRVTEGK

[4] = biological target: T3, 1-phosphatidylinositol 4,5-bisphosphate phosphodiesterase beta-3 (Homo sapiens, UniProt Q01970); experiment: Fluorescence-based biochemical high throughput dose response assay to identify inhibitors of phospholipase C isozymes (PLC-B3).
T3 sequence (Q01970 whole entry): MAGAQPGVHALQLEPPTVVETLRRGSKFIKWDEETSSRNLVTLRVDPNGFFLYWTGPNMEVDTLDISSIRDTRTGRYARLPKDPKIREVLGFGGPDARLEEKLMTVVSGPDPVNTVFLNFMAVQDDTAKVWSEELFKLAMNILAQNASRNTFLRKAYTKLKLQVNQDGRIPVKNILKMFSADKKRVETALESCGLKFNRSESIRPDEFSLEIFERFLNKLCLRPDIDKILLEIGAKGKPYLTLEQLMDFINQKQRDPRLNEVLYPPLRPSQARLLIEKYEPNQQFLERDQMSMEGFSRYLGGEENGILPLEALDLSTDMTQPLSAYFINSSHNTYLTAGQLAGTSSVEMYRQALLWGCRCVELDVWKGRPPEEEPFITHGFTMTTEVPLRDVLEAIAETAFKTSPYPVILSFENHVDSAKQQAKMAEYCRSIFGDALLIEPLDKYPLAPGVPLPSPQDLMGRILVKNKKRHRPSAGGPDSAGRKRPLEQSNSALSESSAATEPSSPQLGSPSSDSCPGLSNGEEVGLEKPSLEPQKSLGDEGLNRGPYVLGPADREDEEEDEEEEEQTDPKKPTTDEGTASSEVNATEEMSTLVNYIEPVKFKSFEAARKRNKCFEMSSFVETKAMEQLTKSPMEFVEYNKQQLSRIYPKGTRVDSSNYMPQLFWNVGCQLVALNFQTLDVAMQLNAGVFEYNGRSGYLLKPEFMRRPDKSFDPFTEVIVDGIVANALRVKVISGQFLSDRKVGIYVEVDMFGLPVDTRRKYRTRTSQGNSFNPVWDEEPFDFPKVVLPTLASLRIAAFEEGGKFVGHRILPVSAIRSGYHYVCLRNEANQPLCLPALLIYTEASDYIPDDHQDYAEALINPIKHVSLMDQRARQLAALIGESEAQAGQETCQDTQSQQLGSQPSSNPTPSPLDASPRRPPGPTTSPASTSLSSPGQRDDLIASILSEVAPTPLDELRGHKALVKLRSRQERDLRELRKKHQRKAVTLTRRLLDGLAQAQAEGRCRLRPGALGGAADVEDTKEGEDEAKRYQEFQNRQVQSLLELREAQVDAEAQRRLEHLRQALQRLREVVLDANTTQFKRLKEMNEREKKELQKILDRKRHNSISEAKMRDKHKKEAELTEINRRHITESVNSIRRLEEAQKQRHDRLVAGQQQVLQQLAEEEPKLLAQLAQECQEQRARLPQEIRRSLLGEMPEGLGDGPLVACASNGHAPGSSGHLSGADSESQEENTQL

[5] = biological target: T4, 1-phosphatidylinositol 4,5-bisphosphate phosphodiesterase gamma-1 (Homo sapiens, UniProt P19174); experiment: Counterscreen for inhibitors of phospholipase C isozymes (PLC-B3): Fluorescence-based biochemical high throughput dose response assay to identify inhibitors of phospholipase C isozymes (PLC-gamma1).
T4 sequence (P19174 whole entry): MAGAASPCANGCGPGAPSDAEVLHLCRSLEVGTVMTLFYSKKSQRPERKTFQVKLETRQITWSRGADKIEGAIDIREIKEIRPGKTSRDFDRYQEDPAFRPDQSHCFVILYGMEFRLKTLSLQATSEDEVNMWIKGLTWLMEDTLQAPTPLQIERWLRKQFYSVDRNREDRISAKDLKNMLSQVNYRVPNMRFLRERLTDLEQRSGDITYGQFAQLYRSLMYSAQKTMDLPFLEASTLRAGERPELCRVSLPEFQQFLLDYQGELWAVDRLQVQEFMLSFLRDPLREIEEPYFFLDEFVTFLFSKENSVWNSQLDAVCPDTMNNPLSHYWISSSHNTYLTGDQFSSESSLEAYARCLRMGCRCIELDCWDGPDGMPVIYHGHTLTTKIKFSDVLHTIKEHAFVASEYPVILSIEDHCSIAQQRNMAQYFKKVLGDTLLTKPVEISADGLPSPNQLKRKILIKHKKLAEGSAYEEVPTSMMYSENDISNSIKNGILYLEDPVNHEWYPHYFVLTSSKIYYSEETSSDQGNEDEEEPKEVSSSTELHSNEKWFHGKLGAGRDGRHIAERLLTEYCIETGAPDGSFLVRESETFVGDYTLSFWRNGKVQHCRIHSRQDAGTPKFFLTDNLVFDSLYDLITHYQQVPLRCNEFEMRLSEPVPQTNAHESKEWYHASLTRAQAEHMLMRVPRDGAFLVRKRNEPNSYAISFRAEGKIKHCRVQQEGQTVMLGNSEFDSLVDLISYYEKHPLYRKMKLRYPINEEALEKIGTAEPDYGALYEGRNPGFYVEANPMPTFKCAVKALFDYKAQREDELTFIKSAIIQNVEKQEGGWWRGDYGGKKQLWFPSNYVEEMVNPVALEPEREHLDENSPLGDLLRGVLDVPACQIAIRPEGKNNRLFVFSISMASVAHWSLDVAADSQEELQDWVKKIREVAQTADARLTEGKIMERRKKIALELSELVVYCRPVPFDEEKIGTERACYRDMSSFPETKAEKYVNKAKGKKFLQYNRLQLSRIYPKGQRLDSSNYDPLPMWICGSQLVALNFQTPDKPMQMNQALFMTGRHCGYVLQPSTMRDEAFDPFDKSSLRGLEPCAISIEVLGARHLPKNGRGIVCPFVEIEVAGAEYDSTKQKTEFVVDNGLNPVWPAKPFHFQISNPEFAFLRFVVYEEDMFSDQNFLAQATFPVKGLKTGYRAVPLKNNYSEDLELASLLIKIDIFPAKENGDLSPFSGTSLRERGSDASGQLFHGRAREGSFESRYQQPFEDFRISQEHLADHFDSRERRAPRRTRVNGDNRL

[6] = mitochondrial function rescue without frataxin homolog – Friedreich's ataxia, plus single-dose screen, dose response (AID 1465); assay type: functional;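 note: yeast depleted of Yfh1p frataxin homolog grown on glycerol needing respiration; WST-1 tetrazolium dye reduction as measure of cellular dehydrogenase metabolic activity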
[7] = biological target: T5, Mannose-6-phosphate isomerase (Homo sapiens, UniProt P34949); experiment: MPI inhibition at elevated mannose 6-phosphate – biochemical, fluorescence intensity, high mannose 6-phosphate, primary screen (AID 1220)
T5 sequence (P34949 whole entry): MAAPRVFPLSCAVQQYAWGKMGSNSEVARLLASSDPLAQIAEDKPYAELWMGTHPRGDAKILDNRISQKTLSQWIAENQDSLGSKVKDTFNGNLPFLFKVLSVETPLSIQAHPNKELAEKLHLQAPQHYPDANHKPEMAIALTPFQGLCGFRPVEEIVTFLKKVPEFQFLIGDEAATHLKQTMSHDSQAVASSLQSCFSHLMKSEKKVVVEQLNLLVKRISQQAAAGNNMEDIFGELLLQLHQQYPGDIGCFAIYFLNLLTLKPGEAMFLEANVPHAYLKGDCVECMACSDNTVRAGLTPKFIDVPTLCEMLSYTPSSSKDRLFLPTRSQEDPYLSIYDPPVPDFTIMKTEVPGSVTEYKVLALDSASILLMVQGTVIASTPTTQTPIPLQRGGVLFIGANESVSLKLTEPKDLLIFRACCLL

[8] = growth inhibition of yeast DHODH-expressing 3D7 parasites – SYBR Green, dry powder samples, dose response (AID 1159570); assay type: functional, cell-based;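 note: parasite growth measured after 72 hours of compound exposure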
[9] = toxicity to human HepG2 hepatoma cells – cell-based, plate reader, dry powder samples, cytotoxicity control, dose response (AID 1159569); assay type: functional;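 note: inhibitor potency with signal falling toward the positive control level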
[10] = Dd2 malaria parasite growth inhibition potency – SYBR Green, dry powder samples, dose response (AID 1159566); assay type: functional, cell-based;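 note: potency for growth inhibition with lower SYBR green DNA signal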
[11] = growth inhibition of PfATP4-mutant resistant parasites – NITD609-resistant line, SYBR Green, dry powder, dose response (AID 1159571); assay type: functional, cell-based;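 note: parasites synchronized at ring stage by sorbitol before testing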
[12] = P. falciparum Dd2 growth inhibitors, dose response, SYBR Green, cherry-picked samples (AID 1159567); assay type: functional, cell-based

T1 sequence (P98170 whole entry): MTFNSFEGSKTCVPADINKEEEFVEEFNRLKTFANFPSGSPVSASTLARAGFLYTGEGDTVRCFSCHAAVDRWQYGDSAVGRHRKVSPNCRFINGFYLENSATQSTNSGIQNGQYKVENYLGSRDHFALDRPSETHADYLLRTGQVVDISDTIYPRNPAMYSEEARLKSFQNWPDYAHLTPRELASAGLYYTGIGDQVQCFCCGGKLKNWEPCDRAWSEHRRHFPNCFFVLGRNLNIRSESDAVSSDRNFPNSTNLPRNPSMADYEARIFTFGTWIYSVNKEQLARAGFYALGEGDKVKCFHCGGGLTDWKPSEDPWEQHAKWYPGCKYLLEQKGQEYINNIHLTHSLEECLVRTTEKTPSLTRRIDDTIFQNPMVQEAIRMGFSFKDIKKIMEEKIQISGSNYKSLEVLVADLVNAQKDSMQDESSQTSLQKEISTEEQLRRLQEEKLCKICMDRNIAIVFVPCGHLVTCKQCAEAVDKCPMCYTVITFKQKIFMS

SMILES: O=C(c1ccc(S(=O)(=O)NCC2CCCO2)cc1)N1CCN(c2cccc(Cl)c2)CC1 (stereo unspecified)
IC50 [1]: > 100 µM (not active) | IC50 [2]: > 100 µM (inactive)

SMILES: C=CCNc1sc(C(=O)c2ccc(C)cc2)c(N)c1C#N
AC50 (Cytochrome P450 2C9): inconclusive | EC50 (Kallikrein-7): 9.46 µM (active) | AC50 (Cytochrome P450 3A4): 31.6 µM (inconclusive)

SMILES: CCN(CC)CCNC(=O)/C(=C\c1cccn1C)NC(=O)c1cccs1
IC50 [1]: > 100 µM (not active) | IC50 [2]: > 100 µM (inactive) | AC50 [3]: > 20 µM (inactive)

SMILES: Oc1c2nc3ccccc3c-2ncn1CCN1CCOCC1
IC50 [4]: > 122 µM (inactive) | IC50 [5]: > 122 µM (inactive)

SMILES: O=[N+]([O-])c1ccc(N2CCCC2)cc1N/N=C1\CN2CCC1CC2
EC50 [6]: > 100 µM (active)

SMILES: O=C(Nc1ccc(F)cc1)N1CCCCN2[C@H](CO)[C@H](c3ccc(C#Cc4ccccc4)cc3)[C@@H]2C1
AC50 [8]: 0.0201 µM (active) | AC50 [9]: 80.3 µM (active) | AC50 [10]: 0.0167 µM (active) | AC50 [11]: 0.0214 µM (active) | AC50 [12]: < 0.3 µM (active)

SMILES: COc1ccc2c3c(n(C)c2c1)[C@H](CO)N(C(=O)Nc1ccc(F)cc1)CC31CCN(C)CC1
AC50 [8]: 4.11 µM (active) | AC50 [9]: 54.1 µM (active) | AC50 [10]: 2.87 µM (active) | AC50 [11]: 4.61 µM (active) | AC50 [12]: 2.67 µM (active)

More lines, now with the values ahead:

IC50 [1]: > 100 µM (not active) | IC50 [2]: > 100 µM (inactive)
SMILES: COc1ccc(S(=O)(=O)N2CCCC2)c(C)c1C

EC50 (Kallikrein-7): 8.31 µM (active)
SMILES: COc1cc(NC(=O)COc2ccccc2Cl)ccc1NC(=O)c1cccs1

EC50 (Kallikrein-7): 8.82 µM (active)
SMILES: O=C(C[C@H]1C[C@H](C(=O)N2CCCCC2)[C@@]2(CCc3ccccc3)c3[nH]c4cc(-c5ccco5)ccc4c3CCN2C1=O)NCCN1CCOCC1

IC50 [7]: > 50 µM (not active)
SMILES: Cc1ccc(O)c(/N=C/c2ccc(C)s2)c1

Reference: ChEMBL document CHEMBL1201862, “PubChem BioAssay data set” (2004)
